Calls of active or inactive are those of the source. The calls are words filed in the database; no cut-off is given here.
Key:
Cytochrome P450 3A4 = Cytochrome P450 3A4 (Homo sapiens, UniProt P08684); experiment: Inhibition of recombinant CYP3A4 after 30 mins by fluorescence assay
Histamine H1 receptor = Histamine H1 receptor (Homo sapiens, UniProt P35367); experiment: Displacement of [3H]pyrilamine from human histamine H1 receptor expressed in CHO Flp-In cells after 90 mins by scintillation counting; assay type: cell-based
[1] = target: T1, Muscarinic acetylcholine receptor M1 (Homo sapiens, UniProt P11229); experiment: Displacement of [3H]N-methylscopolamine from human muscarinic M1 receptor expressed in CHO Flp-In cells after 90 mins by scintillation counting; assay type: cell-based
T1 sequence (P11229 whole entry): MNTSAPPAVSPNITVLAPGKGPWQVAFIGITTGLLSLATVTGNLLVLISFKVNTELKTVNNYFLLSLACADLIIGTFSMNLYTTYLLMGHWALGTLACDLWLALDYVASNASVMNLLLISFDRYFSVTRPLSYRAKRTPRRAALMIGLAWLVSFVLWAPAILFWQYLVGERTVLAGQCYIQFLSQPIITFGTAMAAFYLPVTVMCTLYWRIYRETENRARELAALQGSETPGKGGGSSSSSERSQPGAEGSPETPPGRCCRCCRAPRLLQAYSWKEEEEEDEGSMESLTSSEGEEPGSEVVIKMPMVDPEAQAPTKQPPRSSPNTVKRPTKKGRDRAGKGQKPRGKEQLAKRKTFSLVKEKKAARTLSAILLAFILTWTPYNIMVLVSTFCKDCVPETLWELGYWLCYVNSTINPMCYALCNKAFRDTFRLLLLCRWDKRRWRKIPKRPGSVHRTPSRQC

[2] = target: T2, Voltage-gated inwardly rectifying potassium channel KCNH2 (Homo sapiens, UniProt Q12809); experiment: Displacement of [3H]Dofetilide from human ERG
Cytochrome P450 2D6 = Cytochrome P450 2D6 (Homo sapiens, UniProt P10635); experiment: Inhibition of recombinant CYP2D6 after 30 mins by fluorescence assay
[3] = target: T2, Voltage-gated inwardly rectifying potassium channel KCNH2; experiment: Inhibition of human ERG expressed in HEK cells assessed as blockade of potassium tail current by standard patch clamp analysis
[4] = Drug level in rat brain at 30 mg/kg, po after 4 hrs; assay type: ADME, organism-based; parameters: dose 30 mg/kg, route oral; conditions: read-out: Drug uptake
[5] = Bioavailability in human at 0.1 mg/kg by microdose study; assay type: ADME, organism-based; conditions: in vivo
[6] = Half life in human at 0.1 mg/kg by microdose study; assay type: ADME, organism-based; parameters: dose 0.1 mg/kg; conditions: in vivo
[7] = Apparent permeability across human Caco-2 cells; assay type: ADME, cell-based
[8] = Ratio of drug level in rat brain to plasma at 30 mg/kg, po after 4 hrs; assay type: ADME, organism-based; parameters: dose 30 mg/kg, route oral
[9] = Systemic clearance in human at 0.1 mg/kg, iv by microdose study; assay type: ADME, organism-based; parameters: dose 0.1 mg/kg, route intravenous; conditions: in vivo
Caco-2 = experiment: Ratio of permeability from apical to basolateral side over basolateral to apical side in human Caco-2 cells
[10] = Activity at P-glycoprotein
[11] = AUC (0 to t) in human at 0.1 mg/kg, po by microdose study; assay type: ADME, organism-based; parameters: dose 0.1 mg/kg, route oral; conditions: plasma
[12] = Drug level in rat plasma at 30 mg/kg, po after 4 hrs; assay type: ADME, organism-based; parameters: dose 30 mg/kg, route oral
Rattus norvegicus [13] = experiment: Increase in REM sleep in CD IGS rat model of insomnia at 30 mg/kg, po after 4 hrs by EEG/EMG study relative to control; assay type: functional
Rattus norvegicus [14] = experiment: Effect on sleep-awake pattern in CD IGS rat model of insomnia assessed as latency to NREM sleep at 30 mg/kg, po by EEG/EMG study relative to control; assay type: functional
Rattus norvegicus [15] = experiment: Effect on sleep-awake pattern in CD IGS rat model of insomnia assessed as longest 3 REM bouts at 30 mg/kg, po after 6 hrs by EEG/EMG study relative to control; assay type: functional
Rattus norvegicus [16] = experiment: Effect on sleep-awake pattern in CD IGS rat model of insomnia assessed as longest 3 NREM bouts at 30 mg/kg, po after 6 hrs by EEG/EMG study relative to control; assay type: functional
Rattus norvegicus [17] = experiment: Effect on sleep-awake pattern in CD IGS rat model of insomnia assessed as latency to REM sleep at 30 mg/kg, po by EEG/EMG study relative to control; assay type: functional
Rattus norvegicus [18] = experiment: Increase in NREM sleep in CD IGS rat model of insomnia at 30 mg/kg, po after 4 hrs by EEG/EMG study relative to control; assay type: functional

Sequence of Cytochrome P450 3A4 (P08684 whole entry): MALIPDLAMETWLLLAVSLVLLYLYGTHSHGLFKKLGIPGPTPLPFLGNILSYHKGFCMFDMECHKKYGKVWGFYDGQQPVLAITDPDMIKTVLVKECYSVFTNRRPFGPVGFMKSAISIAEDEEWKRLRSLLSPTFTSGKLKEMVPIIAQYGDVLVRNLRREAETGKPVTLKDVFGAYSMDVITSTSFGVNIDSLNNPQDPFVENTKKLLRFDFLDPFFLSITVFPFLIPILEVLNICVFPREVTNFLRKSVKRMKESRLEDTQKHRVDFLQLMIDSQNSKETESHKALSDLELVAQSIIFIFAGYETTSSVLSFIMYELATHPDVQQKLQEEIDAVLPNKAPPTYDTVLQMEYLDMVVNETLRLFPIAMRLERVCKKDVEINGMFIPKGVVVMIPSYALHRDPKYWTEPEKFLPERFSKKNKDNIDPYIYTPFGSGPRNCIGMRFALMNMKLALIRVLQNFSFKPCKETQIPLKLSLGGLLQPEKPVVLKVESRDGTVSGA
Sequence of Cytochrome P450 2D6 (P10635 whole entry): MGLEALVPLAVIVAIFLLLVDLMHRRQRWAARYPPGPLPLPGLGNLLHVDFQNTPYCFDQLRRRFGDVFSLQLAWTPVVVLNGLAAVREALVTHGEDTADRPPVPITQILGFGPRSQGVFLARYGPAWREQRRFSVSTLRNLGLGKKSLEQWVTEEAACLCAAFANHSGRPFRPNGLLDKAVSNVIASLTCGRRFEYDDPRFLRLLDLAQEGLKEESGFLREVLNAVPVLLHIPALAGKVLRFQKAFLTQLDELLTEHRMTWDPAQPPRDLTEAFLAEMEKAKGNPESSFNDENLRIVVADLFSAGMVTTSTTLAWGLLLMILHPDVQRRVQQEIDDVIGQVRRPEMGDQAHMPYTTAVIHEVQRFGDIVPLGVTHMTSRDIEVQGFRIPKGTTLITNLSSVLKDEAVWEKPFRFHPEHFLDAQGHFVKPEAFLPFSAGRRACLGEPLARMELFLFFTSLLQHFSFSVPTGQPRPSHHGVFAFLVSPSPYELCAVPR
Sequence of Histamine H1 receptor (P35367 whole entry): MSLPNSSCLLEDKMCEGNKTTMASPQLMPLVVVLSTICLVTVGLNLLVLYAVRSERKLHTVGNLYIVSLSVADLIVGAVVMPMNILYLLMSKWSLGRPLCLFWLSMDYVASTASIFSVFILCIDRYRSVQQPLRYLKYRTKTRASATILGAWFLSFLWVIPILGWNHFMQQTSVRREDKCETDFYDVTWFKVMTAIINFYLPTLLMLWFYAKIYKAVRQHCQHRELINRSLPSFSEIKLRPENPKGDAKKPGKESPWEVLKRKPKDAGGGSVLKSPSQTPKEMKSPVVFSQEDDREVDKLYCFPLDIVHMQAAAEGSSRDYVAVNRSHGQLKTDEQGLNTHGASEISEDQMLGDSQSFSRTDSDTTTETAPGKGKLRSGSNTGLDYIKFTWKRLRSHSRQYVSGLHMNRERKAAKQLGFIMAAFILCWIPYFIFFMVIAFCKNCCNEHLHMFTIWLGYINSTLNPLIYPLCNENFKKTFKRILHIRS
T2 sequence (Q12809 whole entry): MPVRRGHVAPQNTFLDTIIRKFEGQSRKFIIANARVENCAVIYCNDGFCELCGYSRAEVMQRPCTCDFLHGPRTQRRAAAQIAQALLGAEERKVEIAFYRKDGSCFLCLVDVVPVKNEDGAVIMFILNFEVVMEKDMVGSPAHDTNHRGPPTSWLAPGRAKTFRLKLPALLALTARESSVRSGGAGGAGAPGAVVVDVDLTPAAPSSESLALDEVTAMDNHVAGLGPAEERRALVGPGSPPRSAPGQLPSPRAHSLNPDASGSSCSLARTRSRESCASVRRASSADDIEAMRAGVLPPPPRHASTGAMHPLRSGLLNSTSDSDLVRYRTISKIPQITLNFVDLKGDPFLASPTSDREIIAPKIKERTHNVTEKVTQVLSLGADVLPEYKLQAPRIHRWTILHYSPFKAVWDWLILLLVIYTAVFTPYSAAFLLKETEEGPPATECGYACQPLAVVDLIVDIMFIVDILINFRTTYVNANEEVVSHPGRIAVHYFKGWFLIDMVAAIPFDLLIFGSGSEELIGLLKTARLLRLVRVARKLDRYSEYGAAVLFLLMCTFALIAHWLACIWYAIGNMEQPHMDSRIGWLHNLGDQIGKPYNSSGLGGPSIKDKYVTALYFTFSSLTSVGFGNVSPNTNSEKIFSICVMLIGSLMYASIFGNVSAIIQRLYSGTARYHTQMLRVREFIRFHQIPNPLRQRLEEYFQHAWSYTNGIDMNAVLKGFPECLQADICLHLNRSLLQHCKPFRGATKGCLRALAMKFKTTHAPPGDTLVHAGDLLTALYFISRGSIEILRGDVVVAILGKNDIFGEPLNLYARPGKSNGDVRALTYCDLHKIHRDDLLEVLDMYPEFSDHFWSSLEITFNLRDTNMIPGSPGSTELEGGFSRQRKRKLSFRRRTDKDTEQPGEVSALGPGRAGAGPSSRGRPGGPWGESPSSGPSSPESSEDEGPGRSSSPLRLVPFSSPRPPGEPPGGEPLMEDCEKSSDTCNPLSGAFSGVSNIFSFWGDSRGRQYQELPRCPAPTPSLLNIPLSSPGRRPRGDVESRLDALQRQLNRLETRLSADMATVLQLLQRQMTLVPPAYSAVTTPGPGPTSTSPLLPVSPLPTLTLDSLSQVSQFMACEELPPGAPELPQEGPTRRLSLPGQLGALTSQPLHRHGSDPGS

C[C@@H](c1ccccn1)c1c(CCN2CCCC2)sc2ccccc12
IC50 (Cytochrome P450 3A4): > 10000 nM
Ki (Histamine H1 receptor): 6.1 nM
Ki ([1]; read-out: Ki): 5800 nM
Ki [2]: 1100 nM
IC50 (Cytochrome P450 2D6): 2700 nM

COc1cccnc1[C@H](C)c1c(CCN(C)C)sc2ccccc12
IC50 (Cytochrome P450 3A4): > 10000 nM
Ki (Histamine H1 receptor; read-out: Ki): 5 nM
IC50 [3]: 3000 nM
Ki ([1]; read-out: Ki): > 10000 nM
Ki [2]: > 5000 nM
IC50 (Cytochrome P450 2D6): 9500 nM

CNCCc1sc2ccccc2c1[C@@H](C)c1ccccn1
IC50 (Cytochrome P450 3A4): > 10000 nM
Ki (Histamine H1 receptor; read-out: Ki): 32 nM
IC50 [3]: 6500 nM
Ki [1]: 3700 nM
Ki [2]: > 5000 nM
IC50 (Cytochrome P450 2D6): 9800 nM

C[C@@H](c1ncccc1Cl)c1c(CCN(C)C)sc2ccccc12
IC50 (Cytochrome P450 3A4): > 10000 nM
Ki (Histamine H1 receptor; read-out: Ki): 8 nM
Ki ([1]; read-out: Ki): > 10000 nM
Ki [2]: > 5000 nM
IC50 (Cytochrome P450 2D6): 1500 nM

CC(c1c(CCN(C)C)sc2ccccc12)n1ccnc1 (racemic)
IC50 (Cytochrome P450 3A4): 5200 nM
Ki (Histamine H1 receptor; read-out: Ki): 122 nM
Ki [2]: > 5000 nM

CC(c1ccncc1)c1c(CCN(C)C)sc2ccccc12 (racemic)
IC50 (Cytochrome P450 3A4): 2800 nM
Ki (Histamine H1 receptor): 23 nM
Ki ([1]; read-out: Ki): 5600 nM
Ki [2]: 1800 nM
IC50 (Cytochrome P450 2D6): 850 nM

C[C@@H](c1ccc(F)cn1)c1c(CCN(C)C)sc2ccccc12
IC50 (Cytochrome P450 3A4): > 10000 nM
Ki (Histamine H1 receptor; read-out: Ki): 13 nM
IC50 [3]: 240 nM
Ki ([1]; read-out: Ki): > 10000 nM
Ki [2]: 2500 nM
IC50 (Cytochrome P450 2D6): > 10000 nM

COc1ccc(C(C)c2c(CCN(C)C)sc3ccccc23)cn1 (racemic)
IC50 (Cytochrome P450 3A4): > 10000 nM
Ki (Histamine H1 receptor; read-out: Ki): 120 nM
Ki ([1]; read-out: Ki): > 10000 nM
Ki [2]: > 5000 nM

C[C@@H](c1ccccn1)c1c(CCN(C)C)sc2ccccc12
concentration at 4 h [4]: 23 ng/g
bioavailability [5]: 47%
half-life [6]: 6.8 h
Papp [7]: > 21.7 ×10⁻⁶ cm/s
IC50 (Cytochrome P450 3A4): > 10000 nM
Kp at 4 h ([8]; read-out: Ratio): 8
clearance [9]: 6.2 mL/min/kg
Ki (Histamine H1 receptor; read-out: Ki): 4 nM
IC50 [3]: 1400 nM
Ratio (Caco-2): > 0.7
Ki [1]: 5300 nM
Activity [10]: inactive
AUC(0-t) [11]: 2.78 ng·h/mL
concentration at 4 h [12]: 2.8 ng/mL
Ki [2]: > 5000 nM

Cc1ncccc1[C@@H](C)c1c(CCN(C)C)sc2ccccc12
IC50 (Cytochrome P450 3A4): > 10000 nM
Ki (Histamine H1 receptor; read-out: Ki): 17 nM
Ki ([1]; read-out: Ki): > 10000 nM
Ki [2]: > 5000 nM
IC50 (Cytochrome P450 2D6): > 10000 nM

Cc1ccc(-c2nc3ccc(C)cn3c2CC(=O)N(C)C)cc1 [ZOLPIDEM]
Activity (Rattus norvegicus [13]): 2.3%
Activity (Rattus norvegicus [14]): 6 min
Activity (Rattus norvegicus [15]): 1.2 min
Activity (Rattus norvegicus [16]): 14.5 min
Activity (Rattus norvegicus [17]): 101 min
Activity (Rattus norvegicus [18]): 47.8%

C[C@H](c1c(CCN(C)C)sc2ccccc12)n1cccn1
concentration at 4 h [4]: 11 ng/g
Papp [7]: > 21.7 ×10⁻⁶ cm/s
IC50 (Cytochrome P450 3A4): > 10000 nM
Kp at 4 h ([8]; read-out: BPR): 20
Ki (Histamine H1 receptor; read-out: Ki): 4.4 nM
IC50 [3]: 2000 nM
Ratio (Caco-2): > 0.7
Ki ([1]; read-out: Ki): > 10000 nM
Activity [10]: inactive
concentration at 4 h [12]: 0.6 ng/mL
Ki [2]: > 5000 nM

C[C@@H](c1ncccc1F)c1c(CCN(C)C)sc2ccccc12
IC50 (Cytochrome P450 3A4): > 10000 nM
Ki (Histamine H1 receptor; read-out: Ki): 2.7 nM
IC50 [3]: 330 nM
Ki ([1]; read-out: Ki): 2200 nM
Ki [2]: > 5000 nM
IC50 (Cytochrome P450 2D6): 4000 nM
